Common to all, as to type: in vivo
Test [1] deals with Alopecurus myosuroides (ALOMY). Briefly: Pre-emergence biological efficacy, glasshouse pot test. Conditions: 312 h, 1,000 g/ha, evaluated after 13 days, 100=total damage, 0=no damage, read-out: Percentage damage caused to weed species, pre-emergence, ALOMY. The method, then:
(§1) Seeds of Alopecurus myosuroides (ALOMY), Setaria faberi (SETFA), Echinochloa crus-galli (ECHCG), Solanum nigrum (SOLNI), Amaranthus retroflexus (AMARE) and Ipomea hederaceae (IPOHE) were sown in standard soil in pots. After cultivation for one day under controlled conditions in a glasshouse (at 24/16° C., day/night; 14 hours light; 65% humidity), the plants were sprayed with an aqueous spray solution derived from the formulation of the technical active ingredient in acetone/water (50:50) solution containing 0.5% Tween 20 (polyoxyethylene sorbitan monolaurate, CAS RN 9005-64-5) to give a final dose of 1000 or 250 g/ha of test compound. The test plants were then grown under controlled conditions in the glasshouse (at 24/16° C., day/night; 14 hours light; 65% humidity) and watered twice daily. After 13 days the test was evaluated (100=total damage to plant; 0=no damage to plant).

In test [2] the test system is Amaranthus retroflexus (AMARE). Described as above. To be noted: 312 h, 1,000 g/ha, evaluated after 13 days, 100=total damage, 0=no damage, read-out: Percentage damage caused to weed species, pre-emergence, AMARE. The method, then: as §1
The subject of test [3] is Echinochloa crus-galli (ECHCG). The test is described as above. To be noted: 312 h, 1,000 g/ha, evaluated after 13 days, 100=total damage, 0=no damage, read-out: Percentage damage caused to weed species, pre-emergence, ECHCG. The method, then:
as §1

The subject of test [4] is Ipomea hederaceae (IPOHE). Described as above. To be noted: Ipomoea hederacea, 312 h, 1,000 g/ha, evaluated after 13 days, 100=total damage, 0=no damage, read-out: Percentage damage caused to weed species, pre-emergence, IPOHE. The method, then: as §1
Test [5] deals with Setaria faberi (SETFA). The description is as above. To be noted: 312 h, 1,000 g/ha, evaluated after 13 days, 100=total damage, 0=no damage, read-out: Percentage damage caused to weed species, pre-emergence, SETFA. The method, then:
as §1

In test [6] the test system is Solanum nigrum (SOLNI). The test is described as above. To be noted: 312 h, 1,000 g/ha, evaluated after 13 days, 100=total damage, 0=no damage, read-out: Percentage damage caused to weed species, pre-emergence, SOLNI. The method, then: as §1
The subject of test [7] is Alopecurus myosuroides (ALOMY). Briefly: Post-emergence biological efficacy, glasshouse pot test. Conditions: 312 h, 1,000 g/ha, evaluated after 13 days, 100=total damage, 0=no damage, read-out: Percentage damage caused to weed species, post-emergence, ALOMY. The method, then:
as §1, with “for 8 days” for “for one day”, “grown on” for “grown”, “in a” for “in the”

The test system of test [8] is Amaranthus retroflexus (AMARE). Described as above. To be noted: 312 h, 1,000 g/ha, evaluated after 13 days, 100=total damage, 0=no damage, read-out: Percentage damage caused to weed species, post-emergence, AMARE. The method, then:
as §1, with “for 8 days” for “for one day”, “grown on” for “grown”, “in a” for “in the”

In test [9] the test system is Echinochloa crus-galli (ECHCG). Described as above. Conditions: 312 h, 1,000 g/ha, evaluated after 13 days, 100=total damage, 0=no damage, read-out: Percentage damage caused to weed species, post-emergence, ECHCG. The method, then:
as §1, with “for 8 days” for “for one day”, “grown on” for “grown”, “in a” for “in the”

Test [10] has as its system Ipomea hederaceae (IPOHE). Described as above. To be noted: Ipomoea hederacea, 312 h, 1,000 g/ha, evaluated after 13 days, 100=total damage, 0=no damage, read-out: Percentage damage caused to weed species, post-emergence, IPOHE. The method, then:
as §1, with “for 8 days” for “for one day”, “grown on” for “grown”, “in a” for “in the”

Test [11] deals with Setaria faberi (SETFA). The description is as above. Conditions: 312 h, 1,000 g/ha, evaluated after 13 days, 100=total damage, 0=no damage, read-out: Percentage damage caused to weed species, post-emergence, SETFA. The method, then:
as §1, with “for 8 days” for “for one day”, “grown on” for “grown”, “in a” for “in the”

Test [12] deals with Solanum nigrum (SOLNI). The description is as above. Conditions: 312 h, 1,000 g/ha, evaluated after 13 days, 100=total damage, 0=no damage, read-out: Percentage damage caused to weed species, post-emergence, SOLNI. The method, then:
as §1, with “for 8 days” for “for one day”, “grown on” for “grown”, “in a” for “in the”

Eight compounds from US20120100990A1, “4 -AMINOPICOLINATES AND THEIR USE AS HERBICIDES” (SYNGENTA CROP PROTECTION LLC, priority 2009, published 2012) can be followed below.

Regarding `C=Cc1c(NCc2cccs2)cc(Cl)nc1C(=O)OC` [Compound 75-12, 6-Chloro-3-ethenyl-4-(thiophen-2-ylmethylamino)-pyridine-2-carboxylic acid methyl ester], the pest or weed control at 1000 g/ha came out at 80% in test [1]; 100% in [2]; 60% in [3]; 80% in [4]; 70% in the test with Setaria faberi (SETFA) [5]; 100% in the test with Solanum nigrum (SOLNI) [6]. Further, the pest or weed control at 1000 g/ha in test [7] was 50%; in test [8], 100%; in [9], 70%; in [10], 50%; in the test on Setaria faberi (SETFA) [11], 80%; in the test on Solanum nigrum (SOLNI) [12] it was 100%.
Regarding `C=Cc1c(NCc2ccccc2[N+](=O)[O-])cc(Cl)nc1C(=O)OC` [Compound 15-12, 6-Chloro-3-ethenyl-4-[(2-nitrophenylmeth-yl)-amino]-pyridine-2-carboxylic acid methyl ester], the pest or weed control at 1000 g/ha in [1] was 70%; in test [2], 100%; in [3], 90%; in test [4], 100%; in the test with Setaria faberi (SETFA) [5], 80%; in the test with Solanum nigrum (SOLNI) [6], 100%. Further, the pest or weed control at 1000 g/ha in [7] was found to be 80%; in test [8], 100%; in test [9] it was 70%; in test [10], 60%; with Setaria faberi (SETFA) [11], 100%; with Solanum nigrum (SOLNI) [12], 90%.
`CCO/C=C\c1c(NCc2ccco2)cc(-c2ccc(Cl)c(OC)c2F)nc1C(=O)OC` [Compound 26-463, (Z)-6-(4-chloro-2-fluoro-3-methoxy-phenyl)-3-(2-ethoxyethenyl)-4-[(furan-2-ylmethyl)-amino]-pyridine-2-carboxylic acid methyl ester]: the pest or weed control at 1000 g/ha in [1] is 10%; in test [2] it was 0%; in [3], 10%; in test [4] it was 0%; in the test on Setaria faberi (SETFA) [5] it was 10%; with Solanum nigrum (SOLNI) [6], 10%. Besides, the pest or weed control at 1000 g/ha is 0% in [7]; 20% in [8]; 0% in test [9]; 40% in test [10]; 0% with Setaria faberi (SETFA) [11]; 60% in the test with Solanum nigrum (SOLNI) [12].
As to `C=Cc1c(C(=O)OC)nc(Cl)c(Cl)c1NCc1ncccc1Cl` [Compound 32-39, 4-[(3-Chloro-pyridin-2-ylmethyl)-amino]-5,6-dichloro-3-ethenyl-pyridine-2-carboxylic acid methyl ester], the pest or weed control at 1000 g/ha in test [1] stood at 0%; in test [2], 100%; in [3], 0%; in [4], 50%; in the test on Setaria faberi (SETFA) [5] it was 0%; with Solanum nigrum (SOLNI) [6] it was 60%. The pest or weed control at 1000 g/ha in test [7] was found to be 10%; in test [8], 100%; in [9] it was 20%; in test [10], 40%; with Setaria faberi (SETFA) [11] it was 50%; in the test with Solanum nigrum (SOLNI) [12], 90%.
For the compound `COC(=O)c1nc(-c2ccc(Cl)c(N(C)C)c2F)cc(NCc2ccco2)c1Cl` [Compound 26-245, 3-Chloro-6-(4-chloro-3-dimethylamino-2-fluoro-phenyl)-4-[(furan-2-ylmethyl)-amino]-pyridine-2-carboxylic acid methyl ester], the pest or weed control at 1000 g/ha in [1] was 10%; in [2], 100%; in [3], 30%; in [4] it was 60%; in the test with Setaria faberi (SETFA) [5], 30%; with Solanum nigrum (SOLNI) [6], 60%. The pest or weed control at 1000 g/ha in [7] worked out at 40%; in [8] it was 100%; in test [9], 50%; in [10] it was 60%; in the test on Setaria faberi (SETFA) [11] it was 60%; in the test on Solanum nigrum (SOLNI) [12], 90%.
Consider `COC(=O)c1nc(Cl)cc(NCc2ccccc2[N+](=O)[O-])c1Br` [Compound 15-17, 3-Bromo-6-chloro-4-[(2-nitrophenylmethyl)-amino]-pyridine-2-carboxylic acid methyl ester], for which the pest or weed control at 1000 g/ha in test [1] came to 40%; in [2] it was 100%; in [3], 20%; in test [4] it was 90%; in the test with Setaria faberi (SETFA) [5], 60%; with Solanum nigrum (SOLNI) [6], 90%. Moreover, the pest or weed control at 1000 g/ha in test [7] worked out at 50%; in test [8], 80%; in [9], 30%; in test [10], 80%; in the test on Setaria faberi (SETFA) [11], 80%; in the test on Solanum nigrum (SOLNI) [12], 90%.
Take `COC(=O)c1nc(Cl)c(Cl)c(NCc2ccccc2[N+](=O)[O-])c1C` [Compound 15-43, 5,6-Dichloro-3-methyl-4-[(2-nitrophenyl-methyl)-amino]-pyridine-2-carboxylic acid methyl ester]: the pest or weed control at 1000 g/ha stood at 0% in test [1]; 90% in [2]; 0% in [3]; 50% in [4]; 0% in the test on Setaria faberi (SETFA) [5]; 70% in the test on Solanum nigrum (SOLNI) [6]. Besides, the pest or weed control at 1000 g/ha stood at 40% in [7]; 100% in test [8]; 10% in test [9]; 70% in test [10]; 40% with Setaria faberi (SETFA) [11]; 100% in the test on Solanum nigrum (SOLNI) [12].
For `C=Cc1c(NCc2c(Cl)cccc2Cl)cc(Cl)nc1C(=O)OC` [Compound 21-12, 6-Chloro-4-[(2,6-dichlorophenyl-methyl)-amino]-3-ethenyl-pyridine-2-carboxylic acid methyl ester], the pest or weed control at 1000 g/ha in test [1] stood at 0%; in test [2], 100%; in [3] it was 0%; in test [4] it was 30%; in the test with Setaria faberi (SETFA) [5] it was 0%; in test [7], 20%. For the same compound, the pest or weed control at 1000 g/ha is 100% in [8]; 10% in [9]; 30% in [10]; 0% in the test on Setaria faberi (SETFA) [11]; 80% with Solanum nigrum (SOLNI) [12].
